According to patent US20140235630A1, “COMPOSITIONS AND METHODS FOR THE TREATMENT OF PROLIFERATIVE DISEASES” (Beth Israel Deaconess Medical Center, Inc., priority 2011, published 2014):

How the values were obtained:
[1] = test system: tumor microvasculature (CD31) of MMTV-CreBRCA1^f/fp53+/− tumors; test: Tumor vascularization: gross pathology, anti-CD31 stain, Chalkley count; format: in vivo, mouse
Description: All animal experiments were conducted in accordance with IACUC-approved protocols at Beth Israel Deaconess Medical Center, Boston, and at the University of Vall d'Hebron, Barcelona, Spain. Female […] were obtained by breeding BRCA1 conditional knockout mice from the NIH repository (01XC8, strain C57BL/6) (Xu et al. Nat. Genet., 22: 37-43, 1999); with MMTV-Cre (Jackson Laboratory B6129-TgN(MMTV-Cre)4Mam) (Wagner et al. Nucleic Acids Res., 25: 4323-4330, 1997) and p53 knockout (Taconic Farms, P53N12-M, C57BL/6) (Donehower et al. Nature, 356: 215-221, 1992). […] The floxed or wild type status of Brca1, the presence of the MMTV-Cre transgene and the p53 heterozygosity were determined by PCR. Mice were examined for the occurrence of tumors twice weekly. When tumormetrics were performed, the length and width of the tumor was determined using calipers, and the tumor volume was determined (width^2×length/2). Tumor volume was used as a measure of growth and was recorded as ratio to tumor volume at diagnosis. […] Proc. Natl. Acad. Sci. USA., 105: 17079-17084, 2008) and dosed at 50 mg/kg/day. For patient-derived tumor grafts consent for tumor use was obtained from patients under a protocol approved by the Vall d'Hebron Hospital Clinical Investigation Ethical Committee. Tumors were subcutaneously implanted in 6-week-old female HsdCpb:NMRI-Foxn1nu mice (Harlan Laboratories, Italy) Animals were supplemented with 1 μM estradiol (Sigma) in the drinking water. After tumor graft growth, tumor tissue was re-implanted into recipient mice, which were randomized upon implant growth. For immunohistochemistry we used anti-cleaved caspase 3 (CC3) (9661S, Cell Signalling, Rabbit polyclonal Asp175), anti-Ki67 (9106-S; Thermo Scientific, Rabbit monoclonal SP6). All other antibodies used are described in the immunoblotting section below. All immunohistochemistries were done as described previously (Burga et al. Breast Cancer Res., 13:[…], 2011) including antigen retrieval with a citrate-buffer. […]

[2] = Intratumoral Compound A concentration by LC/MS/MS; format: in vivo, mouse; settings: 3 hours after last dose; Compound A 30 mg/kg/day, alone or with Compound B 50 mg/kg/day
Description: FIG. 6F is a graph showing the intratumoral Compound A concentrations as assessed by mass spectrometry of tumor tissues harvested from animals 3 hours after last treatment with Compound A (30 mg/kg/day), Compound B (50 mg/kg/day), or their combination.
Metabolites from 100 mg of mouse tumor samples were extracted using 80% methanol according to Yuan et al. (Nat. Protoc., 7: 872-881, 2012) 10 μL were injected and analyzed using a 5500 QTRAP hybrid triple quadrupole mass spectrometer (AB/SCIEX) coupled to a Prominence UFLC HPLC system (Shimadzu) via selected reaction monitoring (SRM) for the Q1/Q3 transition of 410.8/367.0 for 5-(2,6-dimorpholinopyrimidin-4-yl)-4-(trifluoromethyl)pyridin-2-amine (Compound A). ESI voltage was +4900V in positive ion mode using a dwell time of 4 msec and collision energy of 45. Approximately 15 data points were obtained for Compound A per LC/MS/MS experiment. Samples were delivered to the MS via hydrophilic interaction chromatography (HILIC) using a 4.6 mm i.d×10 cm Amide Xbridge column (Waters) at 350 μL/min. Gradients were run starting from 85% buffer B (HPLC grade acetonitrile) to 42% B from 0-5 minutes; 42% B to 0% B from 5-16 minutes; 0% B was held from 16-24 minutes; 0% B to 85% B from 24-25 minutes; 85% B was held for 7 minutes to re-equilibrate the column. Compound A eluted at approximately 3.50 min. […]

Nc1cc(C(F)(F)F)c(-c2cc(N3CCOCC3)nc(N3CCOCC3)n2)cn1 [Compound A, 5-(2,6-dimorpholinopyrimidin-4-yl)-4-(trifluoromethyl)pyridin-2-amine]
gross pathology of tumors ([1]; 50 mg/kg/day via gavage, 2 and 6 weeks): central pallor and, eventually, central necrosis | Chalkley count of CD31-positive microvessels: size and number of blood vessels ([1]; before versus after treatment): starkly reduced | tumor microvasculature, anti-CD31 stain ([1]; center of tumor treated for 6 weeks): diminished | Compound A levels in tumor tissues [2]: consistently in the micro-molar range
